Experimental data from US10668040B2, “Treatment of urea cycle disorders in neonates and infants” (Horizon Therapeutics, LLC, priority 2017, dated 2020).

Tests used:
Format in all cases: in vivo, human
[1] = test system: UCD patients; assay: Example 3: rate of hyperammonemic crises (HACs)
Source text: Sixteen newborn infants aged 0 to 27 days, and 10 infants and toddlers aged 28 days to 23 months received RAVICTI Oral Liquid administered just prior to breastfeeding or intake of formula or food. The recommended dosing regimen was 3-6 times per day depending on feeding schedule.
The starting dose of RAVICTI was based on UCD status (newly diagnosed, or already stable on sodium phenylbutyrate [NaPBA] and/or sodium benzoate [NaBz]) and whether a hyperammonemic crisis was present. Subsequently, the dose may have been adjusted based on clinical and/or ammonia results, according to an algorithm provided in the protocol. […]
Hyperammonemic crisis (HAC) was defined as having signs and symptoms consistent with hyperammonemia (such as, but not limited to, frequent vomiting, nausea, headache, lethargy, irritability, combativeness, and/or somnolence) associated with high blood ammonia and requiring medical intervention. Rate of HACs prior to enrollment was calculated as sum of (number of HAC)/sum of (subject age in days at the time of enrollment or 365 days, whichever was less) across all subjects in the corresponding group. Rate of HACs per 6 months during the safety extension was calculated as sum of (number of HAC)/sum of (days during first 6 months starting on Day 8 or number days on RAVICTI, whichever is less) across all subjects in the corresponding group.

[2] = Example 3: urinary PAGN concentrations (first full day and up to end of trial)
Protocol: Urinary PAGN Concentrations on the First Full Day of RAVICTI Dosing
PK Evaluable Population: all subjects from the safety population with individual concentration-time profiles that allow computation of meaningful PK parameter values. Measurements were taken at hour 0, between 0.5 and 1.5 hours, between 1.5 and 2.5 hours, between 4 and 6 hours, between 7.5 and 8.5 hours, and between 12 and 24 hours after the first dose of the day on day 1 for stable subjects and on day 2 for subjects in HAC.
Urinary PAGN Concentrations Up to End of Trial
PK Evaluable Population: all subjects from the safety population with individual concentration-time profiles that allow computation of meaningful PK parameter values. Measurements were taken at day 7, month 1, month 2, month 3, month 4, month 5, month 6, month 9, month 12, month 15, month 18, month 24, and at the end of the trial.

[3] = test system: UCD patients; assay: HPN-100-009 (Example 2): rate of hyperammonemic crises (HACs); settings: Age 2 Months to <2 Years
Source text: HPN-100-009 is an open-label study consisting of a transition period to HPN-100, followed by a safety extension period for at least 6 months and up to 24 months of treatment with HPN-100, depending on age at enrollment. It is designed to capture information important for evaluating safety, pharmacokinetics and efficacy in young children. Subjects eligible for this study included patients ranging from newborn to <2 years of age with either a diagnosed or clinically suspected UCD. Ten infant and toddler (28 days to 23 months) subjects were enrolled in this study.
Subjects aged 2 months to <2 years received RAVICTI® Oral Liquid administered just prior to breastfeeding or intake of formula or food. The recommended dosing regimen is 3-6 times per day depending on feeding schedule and at the discretion of the Investigator. The starting dose of RAVICTI® was based on UCD status (newly diagnosed, or already stable on sodium phenylbutyrate [NaPBA] and/or sodium benzoate [NaBz]) and whether a hyperammonemic crisis is present. Subsequently, the dose was adjusted based on clinical and/or ammonia results, according to an algorithm provided in the protocol.
Rate of Hyperammonemic Crises (HACs) During the First 6 Months on RAVICTI®.
End point description. A HAC was defined having signs and symptoms consistent with hyperammonemia (such as but not limited to frequent vomiting, nausea, headache, lethargy, irritability, combativeness, somnolence) associated with high blood ammonia and requiring medical intervention. Rate of HACs prior to enrollment was calculated as sum of (number of HAC)/sum of (subject age in days at the time of enrollment or 365 days, whichever was less) across all subjects in the corresponding group. Rate of HACs per 6 months during the safety extension was calculated as sum of (number of HAC)/sum of (days during first 6 months starting on Day 8 or number days on RAVICTI®, whichever was less) across all subjects in the corresponding group. Safety population: all enrolled subjects who received any amount of study medication. […]

SMILES: O=C(CCCc1ccccc1)OCC(COC(=O)CCCc1ccccc1)OC(=O)CCCc1ccccc1 [RAVICTI, benzenebutanoic acid, 1′,1″-(1,2,3-propanetriyl) ester]
- Rate of HACs (ratio) ([1]; subjects aged 0 to 27 days, 16 subjects assessed): 0.003
- Rate of HACs (ratio) ([1]; subjects aged 2 months and up to 2 years, 6 subjects assessed): 0.005
- Urinary PAGN concentration ([2]; Age 0 to <2 months, Day 7): 4643 (±2506); μg/mL
- Urinary PAGN concentration ([2]; Age 0 to <2 months, End of trial): 6939 (±6581); μg/mL
- Urinary PAGN concentration ([2]; Age 0 to <2 months, Month 1): 4517 (±2485), μg/mL
- Urinary PAGN concentration ([2]; Age 0 to <2 months, Month 2): 4116 (±3137); μg/mL
- Urinary PAGN concentration ([2]; Age 0 to <2 months, Month 3): 7037 (±4493); μg/mL
- Urinary PAGN concentration ([2]; Age 0 to <2 months, Month 4): 2826 (±1543); μg/mL
- Urinary PAGN concentration ([2]; Age 0 to <2 months, Month 5): 6973 (±3682); μg/mL
- Urinary PAGN concentration ([2]; Age 0 to <2 months, Month 6): 5883 (±3128); μg/mL
- Urinary PAGN concentration ([2]; Age 0 to <2 months, Month 9): 7006 (±4289); μg/mL
- Urinary PAGN concentration ([2]; Age 0 to <2 months, Month 12): 5847 (±2992); μg/mL
- Urinary PAGN concentration ([2]; Age 0 to <2 months, Month 15): 3915 (±2584); μg/mL
- Urinary PAGN concentration ([2]; Age 0 to <2 months, first full day, 0.5 to 1.5 hours): 1828 (±2862); μg/mL
- Urinary PAGN concentration ([2]; Age 0 to <2 months, first full day, 1.5 to 2.5 hours): 1746 (±1464); μg/mL
- Urinary PAGN concentration ([2]; Age 0 to <2 months, first full day, 4 to 6 hours): 2260 (±1472); μg/mL
- Urinary PAGN concentration ([2]; Age 0 to <2 months, first full day, 7.5 to 8.5 hours): 3530.43 (±3600.4), μg/mL
- Urinary PAGN concentration ([2]; Age 0 to <2 months, first full day, 12 to 24 hours): 4404 (±3766); μg/mL
- Urinary PAGN concentration ([2]; Age 0 to <2 months, first full day, Hour 0): 3530.43 (±3600.4); μg/mL
- Urinary PAGN concentration ([2]; Age 2 months to <2 years, Day 7): 8859 (±10500); μg/mL
- Urinary PAGN concentration ([2]; Age 2 months to <2 years, End of trial): 25333 (±21324); μg/mL
- Urinary PAGN concentration ([2]; Age 2 months to <2 years, Month 1): 6274 (±4802); μg/mL
- Urinary PAGN concentration ([2]; Age 2 months to <2 years, Month 2): 7386 (±6419); μg/mL
- Urinary PAGN concentration ([2]; Age 2 months to <2 years, Month 3): 11456 (±14471); μg/mL
- Urinary PAGN concentration ([2]; Age 2 months to <2 years, Month 4): 21416 (±33695); μg/mL
- Urinary PAGN concentration ([2]; Age 2 months to <2 years, Month 5): 6129 (±8024); μg/mL
- Urinary PAGN concentration ([2]; Age 2 months to <2 years, Month 6): 5347 (±3153); μg/mL
- Urinary PAGN concentration ([2]; Age 2 months to <2 years, Month 9): 9357 (±7286); μg/mL
- Urinary PAGN concentration ([2]; Age 2 months to <2 years, Month 12): 2580 (±286); μg/mL
- Urinary PAGN concentration ([2]; Age 2 months to <2 years, Month 15): 6400 (±00000); μg/mL
- Urinary PAGN concentration ([2]; Age 2 months to <2 years, Month 18): 5250 (±00000); μg/mL
- Urinary PAGN concentration ([2]; Age 2 months to <2 years, first full day, 0.5 to 1.5 hours): 4140 (±4399); μg/mL
- Urinary PAGN concentration ([2]; Age 2 months to <2 years, first full day, 1.5 to 2.5 hours): 3145 (±5045); μg/mL
- Urinary PAGN concentration ([2]; Age 2 months to <2 years, first full day, 4 to 6 hours): 5202 (±4547); μg/mL
- Urinary PAGN concentration ([2]; Age 2 months to <2 years, first full day, 7.5 to 8.5 hours): 3950 (±3068); μg/mL
- Urinary PAGN concentration ([2]; Age 2 months to <2 years, first full day, 12 to 24 hours): 7561 (±6956); μg/mL
- Urinary PAGN concentration ([2]; Age 2 months to <2 years, first full day, Hour 0): 3273 (±1993); μg/mL
- Rate of HACs During Safety Extension ([3]; Day 8 up to Month 6, n = 9): 0.006
- Rate of HACs During Transition (Days 1-7) ([3]; n = 10): 0
- Rate of HACs Prior to Enrollment ([3]; up to 365 days prior to enrollment, n = 10): 0.11
